According to paper PMC8839256, “Concept of Fluorescent Transport Activity Biosensor for the Characterization of the Arabidopsis NPF1.3 Activity of Nitrate” (Sensors (Basel, Switzerland), 2022):

Target: T1, NPF1.3 (Arabidopsis thaliana, UniProt Q9LYD5)
T1 construct: full-length cDNA in pOO2-GW; cRNA expressed in Xenopus laevis oocytes
T1 sequence (Q9LYD5 1-481): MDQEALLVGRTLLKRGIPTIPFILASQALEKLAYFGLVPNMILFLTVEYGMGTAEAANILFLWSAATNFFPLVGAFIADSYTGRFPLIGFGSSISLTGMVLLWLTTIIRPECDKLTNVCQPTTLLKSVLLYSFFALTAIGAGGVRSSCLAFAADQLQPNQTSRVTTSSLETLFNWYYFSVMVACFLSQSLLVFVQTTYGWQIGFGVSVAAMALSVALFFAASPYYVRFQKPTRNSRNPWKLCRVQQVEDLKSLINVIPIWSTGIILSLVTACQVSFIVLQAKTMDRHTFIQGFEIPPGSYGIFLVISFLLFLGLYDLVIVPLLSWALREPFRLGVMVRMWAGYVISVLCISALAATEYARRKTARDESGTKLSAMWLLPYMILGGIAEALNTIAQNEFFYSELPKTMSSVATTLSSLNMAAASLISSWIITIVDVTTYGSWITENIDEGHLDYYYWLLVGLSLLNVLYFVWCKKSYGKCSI
Test: two-electrode voltage clamp, inward current in Xenopus oocytes
Format: cell-based
Conditions: 5 mM CsNO3 (Figure 5 legend, methods; text says KNO3); -120 mV

O=[N+]([O-])O [nitrate]
two-electrode voltage clamp, inward current in Xenopus oocytes: the nitrate-dependent inward currents were observed by KNO3 in NPF1.3-injected oocytes
